The values below come from patent US8575338B2, “Pyrimidine, pyridine and triazine derivatives as maxi-K channel openers” (Mitsubishi Tanabe Pharma Corporation, priority 2008, dated 2013).

Structures are written as SMILES.

This experiment deals with T1, human BKαβ1 channels (Homo sapiens, UniProt Q12791).
T1 construct: expressed in transfected cells; host or cells: CHO cells (G418 and hygromycin selection)
T1 sequence (Q12791 whole entry): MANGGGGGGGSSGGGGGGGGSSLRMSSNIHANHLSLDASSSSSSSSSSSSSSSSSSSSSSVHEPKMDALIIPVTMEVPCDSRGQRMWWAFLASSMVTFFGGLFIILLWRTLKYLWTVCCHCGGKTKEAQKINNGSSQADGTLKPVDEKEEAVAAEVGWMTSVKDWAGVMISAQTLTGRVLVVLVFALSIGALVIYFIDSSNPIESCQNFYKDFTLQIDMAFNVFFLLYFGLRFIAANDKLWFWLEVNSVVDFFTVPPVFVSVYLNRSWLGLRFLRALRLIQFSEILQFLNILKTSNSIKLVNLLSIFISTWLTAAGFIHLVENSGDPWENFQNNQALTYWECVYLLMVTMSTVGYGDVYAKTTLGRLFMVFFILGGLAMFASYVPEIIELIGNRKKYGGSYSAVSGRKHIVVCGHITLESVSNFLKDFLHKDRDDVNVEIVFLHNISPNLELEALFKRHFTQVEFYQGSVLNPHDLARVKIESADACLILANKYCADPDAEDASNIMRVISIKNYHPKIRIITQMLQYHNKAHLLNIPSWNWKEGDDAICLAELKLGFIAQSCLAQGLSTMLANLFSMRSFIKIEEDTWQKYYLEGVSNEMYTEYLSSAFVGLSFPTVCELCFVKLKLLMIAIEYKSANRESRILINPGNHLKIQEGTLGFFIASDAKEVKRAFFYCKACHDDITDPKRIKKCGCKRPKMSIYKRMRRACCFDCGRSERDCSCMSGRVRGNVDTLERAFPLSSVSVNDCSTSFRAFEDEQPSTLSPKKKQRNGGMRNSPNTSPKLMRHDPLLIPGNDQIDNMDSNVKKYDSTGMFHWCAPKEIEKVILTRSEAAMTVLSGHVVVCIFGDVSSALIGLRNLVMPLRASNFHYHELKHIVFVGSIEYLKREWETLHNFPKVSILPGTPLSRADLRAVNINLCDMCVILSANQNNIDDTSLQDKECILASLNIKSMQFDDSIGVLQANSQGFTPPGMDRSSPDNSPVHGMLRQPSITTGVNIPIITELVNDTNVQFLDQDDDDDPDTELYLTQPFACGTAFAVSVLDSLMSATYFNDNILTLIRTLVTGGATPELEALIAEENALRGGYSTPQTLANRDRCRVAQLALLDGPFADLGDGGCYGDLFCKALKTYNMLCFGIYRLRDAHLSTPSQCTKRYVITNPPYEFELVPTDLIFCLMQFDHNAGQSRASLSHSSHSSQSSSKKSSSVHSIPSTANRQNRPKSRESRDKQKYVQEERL
T1 sequence (Q16558 whole entry partner): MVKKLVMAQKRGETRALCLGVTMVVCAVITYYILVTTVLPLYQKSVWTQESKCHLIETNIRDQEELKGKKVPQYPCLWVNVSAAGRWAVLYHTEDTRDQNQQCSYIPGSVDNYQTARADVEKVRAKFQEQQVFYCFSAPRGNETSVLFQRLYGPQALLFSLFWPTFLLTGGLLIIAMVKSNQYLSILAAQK
As to the kind of experiment: BK current in CHO cells expressing human BKαβ1 (PatchXpress whole-cell patch clamp), EC100. In kind it is cell-based. Conditions: drug concentration causing 100% increase of BK current. As to the method:
Methods for Testing Compounds on Human BKαβ1 Channels Expressed Cho Cells
CHO cells expressing human BKαβ1 were cultured in T75 or 6 well cell culture cluster. Medium: DMEM/F12+10% FBS+0.5 mg/mL G418/genetecin+0.1 mg/mL Hygromycin. Split cells every 3-4 days at 80-90% confluence. Use cells for experiments 60-72 hrs after re-passage and at ˜90% confluence.
Trypsin solution (0.05% Trypsin+0.1% EDTA), Ca^2+ free PBS and culture medium were warmed to 37° C. Inspect the T75 flask for cell confluence. Remove culture medium and add warm Ca^2+ free PBS to wash cells. Remove Ca^2+ free PBS and add warm Trypsin solution. Put the T75 flask back to 37° C. incubator for about 4.5 minutes. Stop Trypsin activity by adding culture medium. Spin the cells down. Suspend cells in 120-160 μL external solution for BK current recording and use the cells as soon as possible.
PatchXpress Sealchip 16 electrodes (AVIVA Biosciences) and PatchXpress 7000A (Axon Instruments, Inc) were used for BK current recording. Flat bottom 1.5 mL glass vial (HiPep Laboratories) were used for containing external solutions (±compounds). The holes in the sealchip (equivalent to patch electrode) had resistance about 1.5 MΩ. Cell membrane capacitance was compensated and access resistance was also compensated by 40%. Voltage-clamp protocol: Holding voltage=0 mV. Record BK current during 200-ms steps between +80 to +120 mV in 10 mV increments and 2 sec inter-pulse interval. On-line digital leak subtraction was performed by a P/−4 procedure. After whole-cell configuration was established, 2 minute was used to optimize access resistance. Then the chamber was washed with control bath solution for 1 minute to remove excessive cells. Control bath solution was added with robotic pipette and control BK current was recorded after 1 minute equilibrium time. For each drug concentration, 45 μL drug solution was added three times with “suction before adding” mode which left old solution. For each drug addition, 1 minute equilibrium time was given. BK current was measured at each drug concentrations (usually within 3.5 minutes after first drug addition). Calculate % change of BK current at the voltage step when the control BK current first exceeding 200 pA. If the control BK current was less than 200 pA at 120 mV, the cell was not used. % changes were calculated as 100*(Id−Ic)/Ic, where Id was the current amplitude in the presence of drug and Ic was the control current amplitude.
EC100 was defined as the drug concentration causing 100% increase of BK current calculated by the method described above. EC100 was determined by the data points just below and above 100%. % Increase of BK current was plotted against log [drug concentration]. A straight line connected two data points flanking 100%. From this straight line, the concentration corresponding to 100% increase of BK current was determined as EC100.
Compounds were dissolved in DMSO to make 10 mM stock solutions. Subsequent dilutions were made with external solution. The testing drug concentrations were 0.1, 0.3, 1, 3 and 10 μM depending on the potency of compounds. The highest DMSO concentration was 0.1%. External solution (in mM): 140 NaCl, 4 KCl, 1 MgCl2, 2 CaCl2, 10 Glucose, 10 HEPES; pH=7.4 with NaOH. Internal solution (in mM): 140 KCl, 5 EGTA, 1 MgCl2, 5 MgATP, 0.2 CaCl2, 5 HEPES; pH=7.2 with KOH.
For orientation: The patch-clamp technique gives a direct electrical read-out from membranes.
As to `CCOc1cc(F)ccc1-c1cc(OC2(C(=O)O)CC2)nc(-c2ccc(F)cc2)n1` [Example 709], the EC100 amounted to 0.12 µM.
As for `CC(C)Oc1cc(F)ccc1-c1cc(OC2(C(=O)O)CC2)nc(-c2ccc(F)cc2)n1` [Example 710], the figure is 0.14 µM.
`O=C(O)C1(Oc2cc(-c3ccc(C(F)(F)F)nc3)nc(-c3ccc(Cl)c(F)c3)n2)CC1` [Example 888] came in with an EC100 of 0.48 µM.
As for `CCc1ccc(F)cc1-c1cc(OC2(C(=O)O)CC2)nc(-c2ccc(F)cc2)n1` [Example 892], the figure is 0.55 µM; as for `CCOc1ccc(-c2cc(OC3(C(=O)O)CC3)nc(-c3ccc(F)cc3)n2)c(C)c1` [Example 897], 0.62 µM.
To `COc1ccc(Cl)c(-c2cc(OC3(C(=O)O)CC3)nc(-c3ccc(F)cc3)n2)c1` [Example 900] belongs 0.36 µM.
To `Cc1cc(C(F)(F)F)ccc1-c1cc(OC2(C(=O)O)CC2)nc(-c2ccc(F)cc2)n1` [Example 905] belongs 0.14 µM.
`Cc1ccc(C(F)(F)F)cc1-c1cc(OC2(C(=O)O)CC2)nc(-c2ccc(F)cc2)n1` [Example 906] displayed an EC100 of 0.15 µM.
As for `N#Cc1cc(Cl)ccc1-c1cc(OC2(C(=O)O)CC2)nc(-c2ccc(Cl)cc2)n1` [Example 918], the figure is 0.2 µM.
As for `COCc1cc(Cl)ccc1-c1cc(OC2(C(=O)O)CC2)nc(-c2ccc(Cl)cc2)n1` [Example 921], the figure is 0.1 µM; as for `CCOc1cc(F)cc(-c2nc(-c3ccc(F)cc3)nc(OC3(C(=O)[O-])CC3)c2C)c1.[Na+]` [Example 978], 0.12 µM; as for `COc1ccc(-c2nc(-c3ccc(F)cc3)nc(OC3(C(=O)[O-])CC3)c2C)cc1Cl.[Na+]` [Example 982], 0.1 µM.
To `COc1cc(-c2nc(-c3ccc(F)cc3)nc(OC3(C(=O)[O-])CC3)c2C)ccc1Cl.[Na+]` [Example 993] belongs 0.13 µM; to `COc1cc(-c2nc(-c3ccc(F)cc3)nc(OC3(C(=O)[O-])CC3)c2C)ccc1F.[Na+]` [Example 996], 0.58 µM.
`Cc1cc(-c2nc(-c3ccc(F)cc3)nc(OC3(C(=O)[O-])CC3)c2C)ccc1F.[Na+]` [Example 999] displayed an EC100 of 0.14 µM.
For `Cc1cc(F)cc(-c2nc(-c3ccc(F)cc3)nc(OC3(C(=O)[O-])CC3)c2C)c1.[Na+]` [Example 1000], the EC100 was 0.14 µM.
The compound `Cc1c(OC2(C(=O)[O-])CC2)nc(-c2ccc(F)cc2)nc1-c1ccc(Cl)s1.[Na+]` [Example 1007] displayed an EC100 of 0.1 µM.
As for `Cc1c(OC2(C(=O)O)CC2)nc(-c2ccc(Cl)cc2)nc1-c1ccc(F)cc1` [Example 1015], the figure is 0.34 µM; as for `COc1ccc(-c2nc(-c3ccc(Cl)cc3)nc(OC3(C(=O)O)CC3)c2C)cc1` [Example 1016], 0.5 µM.
To `CCOCc1ccc(-c2cc(OC3(C(=O)O)CC3)nc(-c3ccc(Cl)cc3)n2)c(C)c1` [Example 1034] belongs 0.17 µM; to `Cc1cc(F)ccc1-c1cc(OC2(C(=O)O)CC2)nc(-c2ccc(F)cc2)c1` [Example 1087], 0.36 µM.
Compound `Cc1cc(Cl)ccc1-c1nc(OC2(C(=O)[O-])CC2)nc(-c2ccc(Cl)cc2)n1.[Na+]` [Example 1088] showed an EC100 of 0.14 µM.
`Cc1cc(C(F)(F)F)ccc1-c1nc(OC2(C(=O)O)CC2)nc(-c2ccc(Cl)cc2)n1` [Example 1092]: the EC100 amounted to 0.02 µM.
To `Cc1ccc(C(F)(F)F)cc1-c1nc(OC2(C(=O)[O-])CC2)nc(-c2ccc(Cl)cc2)n1.[Na+]` [Example 1093] belongs 0.04 µM; to `Cc1cc(OC(F)(F)F)ccc1-c1nc(OC2(C(=O)[O-])CC2)nc(-c2ccc(Cl)cc2)n1.[Na+]` [Example 1094], 0.03 µM; to `O=C([O-])C1(Oc2cc(N3CCc4ccc(F)cc4C3)nc(-c3ccc(Cl)cc3)n2)CC1.[Na+]` [Example 1095], 0.3 µM.
